ChEMBL document CHEMBL5257033, “Pyrrolidinone and pyrrolidine derivatives: Evaluation as inhibitors of InhA and Mycobacterium tuberculosis” (Eur J Med Chem, 2016)
Converted amounts (≈) assume the structure as drawn. “And” between values parts separate entries of the source, which are not always exact repeats. Identical values can stand only once. The source made the active and inactive calls. The rule behind the calls is not given here.

Legend:
[1] = system: Mycobacterium tuberculosis; experiment: Antimycobacterial activity against wild type Mycobacterium tuberculosis H37Rv assessed as bacterial growth inhibition measured after 21 days by microbroth dilution method; type: functional; conditions: for MIC: 504 h, time 21 day
[2] = biological target: T1, Enoyl-[acyl-carrier-protein] reductase [NADH] (Mycobacterium tuberculosis) (UniProt P9WGR1); experiment: Inhibition of Mycobacterium tuberculosis InhA at 5 uM using trans-2-dodecenoyl-Coenzyme A as substrate in presence of NADH relative to control
T1 sequence (whole entry): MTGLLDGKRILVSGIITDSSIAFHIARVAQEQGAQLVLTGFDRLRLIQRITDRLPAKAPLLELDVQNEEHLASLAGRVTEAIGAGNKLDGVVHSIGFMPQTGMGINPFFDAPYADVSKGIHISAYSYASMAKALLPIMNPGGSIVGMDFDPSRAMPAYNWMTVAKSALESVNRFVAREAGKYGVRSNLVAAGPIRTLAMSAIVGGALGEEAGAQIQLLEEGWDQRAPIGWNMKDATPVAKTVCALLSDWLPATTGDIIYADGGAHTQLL

[3] = system: Mycobacterium tuberculosis; experiment: Antimycobacterial activity against 14C acetate-labeled Mycobacterium tuberculosis H37Ra assessed as reduction in trehalose monomycolates level at 42 to 84 uM incubated for 24 hrs by autoradiography based TLC analysis; type: functional, organism-based; conditions: dose 42-84 µM
[4] = system: Mycolicibacterium smegmatis; experiment: Disruption of trans-membrane electrical charge gradient of proton motive force in Mycobacterium smegmatis up to 280 uM by DiSC3(5)-probe based fluorescence assay; type: functional, organism-based
[5] = system: Mycolicibacterium smegmatis; experiment: Antimycobacterial activity against Mycobacterium smegmatis MC2 155 assessed as reduction in phosphatidylethanolamine synthesis at 16.8 uM incubated for 16 hrs by TLC analysis; type: functional, organism-based
Escherichia coli [6] = experiment: Antibacterial activity against Escherichia coli BL21(DE3) assessed as reduction in phosphatidylethanolamine incubated for 4 hrs by TLC analysis; type: functional, organism-based
[7] = (§1) Cytotoxicity against human MRC5 cells assessed as reduction in cell number measured after 72 hrs by Hoechst 33342 staining based microscopic analysis; type: toxicity; conditions: MRC5 cells, read-out: LD50
[8] = system: Mycobacterium tuberculosis; experiment: Antimycobacterial activity against 14C acetate-labeled Mycobacterium tuberculosis H37Ra assessed as inhibition of bacterial growth at 84 uM incubated for 24 hrs by autoradiography based TLC analysis relative to control; type: functional; conditions: AT84
Escherichia coli [9] = experiment: Antibacterial activity against Escherichia coli BL21(DE3) assessed as inhibition of bacterial growth incubated for 4 hrs; type: functional, organism-based; conditions: dose 35-140 µM
[10] = system: Mycobacterium tuberculosis; experiment: Antimycobacterial activity against 14C acetate-labeled Mycobacterium tuberculosis H37Ra assessed as reduction in trehalose dimycolates level at 42 to 84 uM incubated for 24 hrs by autoradiography based TLC analysis; type: functional, organism-based; conditions: dose 42-84 µM
[11] = system: Mycolicibacterium smegmatis; experiment: Antimycobacterial activity against Mycobacterium smegmatis MC2 155 assessed as reduction in cell wall bound mycolic acid methyl esters at 16.8 uM incubated for 16 hrs by TLC analysis; type: functional, organism-based
[12] = system: Mycolicibacterium smegmatis; experiment: Antimycobacterial activity against Mycobacterium smegmatis MC2 155 assessed as reduction in trehalose dimycolates level at 16.8 uM incubated for 16 hrs by TLC analysis; type: functional, organism-based
[13] = system: Mycobacterium tuberculosis; experiment: Antimycobacterial activity against 14C acetate-labeled Mycobacterium tuberculosis H37Ra assessed as reduction in cell wall bound mycolic acid level at 42 to 84 uM incubated for 24 hrs by autoradiography based TLC analysis; type: functional, organism-based; conditions: dose 42-84 µM
[14] = system: Mycolicibacterium smegmatis; experiment: Antimycobacterial activity against Mycobacterium smegmatis MC2 155 assessed as reduction in trehalose monomycolates level at 16.8 uM incubated for 16 hrs by TLC analysis; type: functional, organism-based
[15] = system: Mycobacterium tuberculosis; experiment: Antimycobacterial activity against 14C acetate-labeled Mycobacterium tuberculosis H37Ra assessed as inhibition of bacterial growth at 42 uM incubated for 24 hrs by autoradiography based TLC analysis relative to control; type: functional
[16] = system: Mycolicibacterium smegmatis; experiment: Antimycobacterial activity against Mycobacterium smegmatis MC2 155 assessed as inhibition of bacterial growth at 16.8 uM incubated for 16 hrs relative to control; type: functional
[17] = system: Mycolicibacterium smegmatis; experiment: Disruption of trans-membrane electrical charge gradient of proton motive force in Mycobacterium smegmatis at 30 uM by DiSC3(5)-probe based fluorescence assay; type: functional, organism-based
[18] = system: Mycolicibacterium smegmatis; experiment: Antimycobacterial activity against Mycobacterium smegmatis MC2 155 assessed as inhibition of bacterial growth at 5 uM incubated for 16 hrs relative to control; type: functional
[19] = system: Mycolicibacterium smegmatis; experiment: Antimycobacterial activity against Mycobacterium smegmatis MC2 155 assessed as inhibition of bacterial growth at 10 uM incubated for 16 hrs relative to control; type: functional
[20] = system: Mycolicibacterium smegmatis; experiment: Antimycobacterial activity against Mycobacterium smegmatis MC2 155 assessed as inhibition of bacterial growth at 2 uM incubated for 16 hrs relative to control; type: functional
MRC5 = experiment: as §1; type: toxicity; conditions: mrc5, 72 h
[21] = system: Mycobacterium tuberculosis; experiment: Antimycobacterial activity against 14C acetate-labeled Mycobacterium tuberculosis H37Ra assessed as reduction in trehalose dimycolates level at 3.7 uM incubated for 24 hrs by autoradiography based TLC analysis; type: functional, organism-based
[22] = system: Mycobacterium tuberculosis; experiment: Antimycobacterial activity against 14C acetate-labeled Mycobacterium tuberculosis H37Ra assessed as reduction in trehalose monomycolates level at 3.7 uM incubated for 24 hrs by autoradiography based TLC analysis; type: functional, organism-based
[23] = biological target: T1, Enoyl-[acyl-carrier-protein] reductase [NADH] (Mycobacterium tuberculosis); experiment: Inhibition of Mycobacterium tuberculosis InhA at 50 uM using trans-2-dodecenoyl-coenzyme A as substrate in presence of NADH
[24] = system: Mycolicibacterium smegmatis; experiment: Antimycobacterial activity against Mycobacterium smegmatis MC2 155 assessed as inhibition of bacterial growth at 6.2 uM incubated for 16 hrs relative to control; type: functional
[25] = system: Mycolicibacterium smegmatis; experiment: Disruption of trans-membrane electrical charge gradient of proton motive force in Mycobacterium smegmatis by DiSC3(5)-probe based fluorescence assay; type: functional, organism-based
[26] = system: Mycolicibacterium smegmatis; experiment: Antimycobacterial activity against Mycobacterium smegmatis MC2 155 assessed as reduction in phosphatidylethanolamine synthesis at 6.2 uM incubated for 16 hrs by TLC analysis; type: functional, organism-based
[27] = system: Mycolicibacterium smegmatis; experiment: Antimycobacterial activity against Mycobacterium smegmatis MC2 155 assessed as reduction in cell wall bound mycolic acid methyl esters at 6.2 uM incubated for 16 hrs by TLC analysis; type: functional, organism-based
[28] = system: Mycolicibacterium smegmatis; experiment: Antimycobacterial activity against Mycobacterium smegmatis MC2 155 assessed as reduction in trehalose dimycolates level at 6.2 uM incubated for 16 hrs by TLC analysis; type: functional, organism-based
[29] = system: Mycolicibacterium smegmatis; experiment: Antimycobacterial activity against Mycobacterium smegmatis MC2 155 assessed as reduction in trehalose monomycolates level at 6.2 uM incubated for 16 hrs by TLC analysis; type: functional, organism-based

In the case of `O=C1C(C2c3ccccc3-c3ccccc32)CCN1CCc1ccccc1` (stereo unspecified), the MIC [1] is reported as 1 µg/mL and 2.8 µM.
In the case of `CCCCCCCCC(=O)N1CCC(C2c3ccccc3-c3ccccc32)C1` (stereo unspecified), the MIC [1] is reported as 21.3 µM and 8 µg/mL.
For `CCCCCCCCCN1CCC(C2c3ccccc3-c3ccccc32)C1` (stereo unspecified), the MIC [1] was 1 µg/mL and 2.8 µM.
In the case of `O=C1C(C2c3ccccc3-c3ccccc32)CCN1c1ccc(F)cc1` (stereo unspecified), the MIC [1] is reported as 14.6 µM and 5 µg/mL.
In the case of `O=C(c1ccccc1)N1CCC(C2c3ccccc3-c3ccccc32)C1` (stereo unspecified), the inhibition [2] is reported as 50% and the MIC [1] is reported as greater than 16 µg/mL.
For `CCCCCCCCC(=O)N1CCC(C2c3ccccc3-c3ccccc32)C1=O` (stereo unspecified), the MIC [1] was 4 µg/mL and 10.3 µM.
For `Clc1ccc(CN2CCC(C3c4ccccc4-c4ccccc43)C2)cc1` (stereo unspecified), the Activity [3] was “inactive”, the Activity [4] was “inactive” and the Activity [5] was “Active”. The Activity (Escherichia coli [6]) was “Active”, the CC50 at 72 h [7] was 35 µM and the inhibition at 84 µM [8] was 48%. For the same compound, the inhibition (Escherichia coli [9]) was “Dose-Dependent Effect”, the Activity [10] was “Active” and the Activity [11] was “Active”. For the same compound, the Activity [12] was “Active”, the Activity [13] was “Active” and the Activity [14] was “inactive”. For the same compound, the inhibition at 42 µM [15] was 43%, the inhibition at 16.8 µM [16] was 57% and the MIC [1] was 1.4 µM and 0.5 µg/mL.
With `Oc1cc(Cl)ccc1Oc1ccc(Cl)cc1Cl` [TRICLOSAN] the MIC [1] was 34.5 µM and 10 µg/mL.
For `N#CC(C#N)=NNc1cccc(Cl)c1` [CARBONYL CYANIDE M-CHLOROPHENYLHYDRAZONE], the Activity [17] was “Active”, the inhibition at 5 µM [18] was 9% and the inhibition at 10 µM [19] was 66%. The inhibition at 2 µM [20] was 0.2%.
With `Clc1cc(Cl)cc(N2CCC(C3c4ccccc4-c4ccccc43)C2)c1` (stereo unspecified) the Activity (MRC5) was “Non-Toxic” and the MIC [1] was 66 µM and 25 µg/mL.
For `c1ccc(CN2CCC(C3c4ccccc4-c4ccccc43)C2)cc1` (stereo unspecified), the MIC [1] was 5 µg/mL and 15.4 µM.
For `O=C(c1ccccc1)N1CCC(C2c3ccccc3-c3ccccc32)C1=O` (stereo unspecified), the MIC [1] was > 45 µM and > 16 µg/mL.
In the case of `c1ccc(CCN2CCC(C3c4ccccc4-c4ccccc43)C2)cc1` (stereo unspecified), the CC50 at 72 h [7] is reported as 18.9 µM and the MIC [1] is reported as 14.7 µM and 5 µg/mL.
For `O=C(c1ccc2[nH]ccc2c1)N1CCN(C2c3ccccc3-c3ccccc32)CC1`, the MIC [1] was > 16 µg/mL and > 40.7 µM.
With `CCCCCCCCCN1CCC(C2c3ccccc3-c3ccccc32)C1=O` (stereo unspecified) the Activity (MRC5) was “Non-Toxic” and the MIC [1] was 5 µg/mL and 13.3 µM.
In the case of `NNC(=O)c1ccncc1` [ISONIAZID], the Activity [21] is reported as “Active”, the Activity [22] is reported as “Active” and the MIC [1] is reported as 0.025 µg/mL (≈ 0.182 µM).
In the case of `O=C1C(C2c3ccccc3-c3ccccc32)CCN1Cc1ccccc1` (stereo unspecified), the MIC [1] is reported as > 74 µM and > 25 µg/mL.
For `O=C1C(C2c3ccccc3-c3ccccc32)CCN1Cc1ccc(Cl)cc1` (stereo unspecified), the Activity (MRC5) was “Non-Toxic” and the MIC [1] was 69 µM and 25 µg/mL.
In the case of `O=C1C(C2c3ccccc3-c3ccccc32)CCN1c1cc(Cl)cc(Cl)c1` (stereo unspecified), the inhibition [23] is reported as “inactive” and the Activity ([1]; time 21.0 day) is reported as “inactive”.
With `Fc1ccc(N2CCC(C3c4ccccc4-c4ccccc43)C2)cc1` (stereo unspecified) the MIC [1] was 15.2 µM and 5 µg/mL.
With `O=C(Nc1ccc(F)c(F)c1F)NC12CC3CC(CC(C3)C1)C2` the inhibition at 6.2 µM [24] was 60%, the Activity [25] was “inactive” and the Activity [26] was “Active”. The Activity [27] was “Active”, the Activity [28] was “Active” and the Activity [29] was “inactive”.
